The source made the active and inactive calls. The rule behind the calls is not given here.
What was measured:
Type in all cases: functional, cell-based
Splenocyte [1] = test: Induction of IL2 production in C57BL/6 mouse splenocytes after 48 hrs by cytometric bead array method
Splenocyte [2] = test: Induction of IL10 production in C57BL/6 mouse splenocytes after 48 hrs by cytometric bead array method
Splenocyte [3] = test: Induction of IL13 production in C57BL/6 mouse splenocytes after 48 hrs by cytometric bead array method
Splenocyte [4] = test: Induction of IL4 production in C57BL/6 mouse splenocytes after 48 hrs by cytometric bead array method
Splenocyte [5] = test: Induction of IFN-gamma production in C57BL/6 mouse splenocytes after 48 hrs by cytometric bead array method

Compound	Activity (Splenocyte [1])	Activity (Splenocyte [2])	Activity (Splenocyte [3])	Activity (Splenocyte [4])	Activity (Splenocyte [5])
CCCCCCCCCCCCCCCCCCCCCCCCCC(=O)N1[C@@H](CCCCCCCCCCCCCC)[C@@H](O)[C@@H]1CO[C@H]1O[C@H](CO)[C@H](O)[C@H](O)[C@H]1O	Active	Active	Active	Active	Active
CCCCCCCCCCCCCCCCCCCCCCCCCC(=O)N1[C@@H](CCCCCCCCCCCCCC)[C@@H](O)[C@@H]1CO[C@@H]1O[C@H](CO)[C@H](O)[C@H](O)[C@H]1O	inactive	inactive	inactive	inactive	inactive
CCCCCCCCCCCCCCCCCCCCCCCCCC(=O)N1[C@H](CCCCCCCCCCCCC)C[C@@H](O)[C@@H]1CO[C@H]1O[C@H](CO)[C@H](O)[C@H](O)[C@H]1O	Active	Active	Active	Active	Active
CCCCCCCCCCCCCCCCCCCCCCCCCC(=O)N1[C@@H](CCCCCCCCCCCCC)C[C@@H](O)[C@@H]1CO[C@H]1O[C@H](CO)[C@H](O)[C@H](O)[C@H]1O	inactive	inactive	inactive	inactive	inactive
CCCCCCCCCCCCCCCCCCCCCCCCCC(=O)N1[C@H](CCCCCCCCCCCCCC)[C@@H](O)[C@@H]1CO[C@H]1O[C@H](CO)[C@H](O)[C@H](O)[C@H]1O	inactive	inactive	inactive	inactive	inactive
CCCCCCCCCCCCCCCCCCCCCCCCCC(=O)N1[C@H](CCCCCCCCCCCCC)C[C@@H](O)[C@@H]1CO[C@@H]1O[C@H](CO)[C@H](O)[C@H](O)[C@H]1O	inactive	inactive	inactive	inactive	inactive
CCCCCCCCCCCCCCCCCCCCCCCCCC(=O)N1[C@@H](CCCCCCCCCCCCC)C[C@@H](O)[C@@H]1CO[C@@H]1O[C@H](CO)[C@H](O)[C@H](O)[C@H]1O	inactive	inactive	inactive	inactive	inactive
CCCCCCCCCCCCCCCCCCCCCCCCCC(=O)N1[C@H](CCCCCCCCCCCCCC)[C@@H](O)[C@@H]1CO[C@@H]1O[C@H](CO)[C@H](O)[C@H](O)[C@H]1O	inactive	inactive	inactive	inactive	inactive

Source: ChEMBL document CHEMBL1143140, “RCAI-8, 9, 18, 19, and 49-52, conformationally restricted analogues of KRN7000 with an azetidine or a pyrrolidine ring: Their synthesis and bioactivity for mouse natural killer T cells to produce cytokines” (Bioorg Med Chem, 2008)
